# Assay results taken from US11229624B2, “FABP4 as a therapeutic target in skin diseases” (TICURE LTD., priority 2016, dated 2022).
# Test system: IMQ-induced psoriasis in mice
# Assay: Imiquimod-induced psoriasis model in mice, PASI scoring of back skin inflammation
# Type: in vivo, Balb/c mice
# From the text: As already explained, psoriasis is a chronic inflammatory skin disorder. It occurs when the immune system mistakes the skin cells as a pathogen, and sends out faulty signals that speed up the proliferation of skin cells. Imiquimod (IMQ) is a potent immune activator that induces and exacerbates psoriasis when applied topically. Daily application of IMQ on mouse back skin induces inflamed scaly skin lesions resembling plaque type psoriasis. IMQ-induced psoriasis in mice has been long used as a model for human psoriasis.
# The efficacy of oral administration of a FABP4-inhibitor to treat psoriasis in the IMQ-induced model in mice was tested.
# The test was carried out using Balb/c mice (Envigo RMS (Israel) Ltd), average (±SD) body weight at study initiation was 18.2±0.81 g. Animals were fed ad libitum a commercial rodent diet (Teklad Certified Global 18% Protein Diet, Harlan cat #2018SC). Animals had free access to sterilized and acidified drinking water (pH between 2.5 and 3.5).
# The tests included six groups of 3-10 mice per group, as follows: • one naïve (no IMQ) group; • one Vehicle control group, the vehicle formulation being 10% 1-methyl-2-pyrrolidone and 5% Cremophor EL in water for injection (WFI); • one treated group that received Cortisone acetate as a positive control—one tablet (25 mg each, Rekah Pharm) was triturated with a mortar. The powder was dissolved in 2.5 ml WFI yielding 10 mg/ml. The compound was administrated per-os at 12.5 mg/kg BW (body weight) mouse of the compound once daily for six days starting the first day of IMQ application (Day 1); and • three treated groups that received BMS (i.e. Test Item) at three doses—5, 15 and 30 mg/kg. BMS powder (Cayman Chemical) was dissolved in ethanol to create a 30 mg/ml solution. This stock solution was diluted in the Vehicle to create three different concentrations 0.5, 1.5 and 3 mg/ml. A new aqueous solution was prepared in each day. BMS was administrated per-os once daily for six days starting the first day of IMQ application (Day 1).
# IMQ-induction: A daily topical dose of 62.5 mg of commercially available IMQ cream (5%) (Aldara; 3M Pharmaceuticals) was applied to animals from all the groups except for the naïve group on the shaved back for six consecutive days, translated to a daily dose of 3.125 mg of the active compound.
# Experiment conditions: All animals except for the naïve group received IMQ cream (Aldara™ 5% cream, #3 Pharmaceuticals) applied on the back skin daily for six consecutive days starting on Day 1 (˜60 mg/mouse). The Test Item, Vehicle and Cortisone acetate were administered per-os daily for 6 days. During the study morbidity and mortality, body weight (BW), clinical signs, and Psoriasis Area and Severity Index (PASI) scoring were performed and representative pictures were taken. The animals were sacrificed on Day 9.
# Scoring was performed by a trained observer in a “blinded” way, i.e., being unaware of the treatment. To score the severity of inflammation of the back skin, the clinical PASI scoring was employed. Erythema, scaling, and thickening were scored independently on a scale from 0 to 4: 0, none; 1, slight; 2, moderate; 3, marked; 4, very marked. The cumulative score (erythema plus scaling plus thickening), PASI scoring, served as a measure of the severity of inflammation (scale 0-12).
# [1] = 15 mg/kg per-os once daily for six days
# [2] = BMS treated groups (5, 15 and 30 mg/kg per-os), Day 7
smiles,measurement,setting,value
"CCc1c(-c2ccccc2)c(-c2ccccc2)nn1-c1ccccc1-c1cccc(OCC(=O)O)c1 [BMS, 2-[[2′-(5-ethyl-3,4-diphenyl-1H-pyrazol-1-yl)[1,1′-biphenyl]-3-yl]oxy]-acetic acid]","erythema severity score, comparison of doses",[1],best results
same,"scaling severity score, comparison of doses",[1],best results
same,"skin thickness severity score, comparison of doses",[1],best results
same,severity of skin inflammation (PASI scoring),"BMS treated groups (5, 15 and 30 mg/kg per-os once daily for six days), Day 7",significant amelioration
same,erythema severity score,[2],significant amelioration
same,scaling severity score,[2],significant amelioration
same,skin thickness severity score,[2],significant amelioration
same,"impact on the inflammation severity, comparison of doses",middle dose 15 mg/kg per-os once daily for six days,highest impact
